Molecules are shown by their SMILES. Calls of active or inactive are those of the source. No cut-off for these calls is given here.

What is called IC50 is the point on the concentration scale where inhibition reaches its midpoint. In general, EC50 refers to the concentration at which the effect is half-maximal. For orientation: CC50 means the concentration giving 50% cytotoxicity.

The test system of data set [1] is SARS-CoV. Put plainly: Antiviral activity against SARS-CoV Frankfurt1 infected in African green monkey Vero E6 cells pretreated with compound followed by viral infection and measured at 72 hrs post-infection by MTS assay. The data set is classed as functional, organism-based. The note with it: Severe acute respiratory syndrome-related coronavirus; Frankfurt 1; Vero C1008. A general note: Formazan colour is commonly taken as a measure of viable cells.

Data set [2] relates to Middle East respiratory syndrome-related coronavirus. Description: Antiviral activity against MERS-CoV EMC/2012 infected in African green monkey Vero cells pretreated with compound followed by viral infection and measured at 72 hrs post-infection by MTS assay. The data set is classed as functional, organism-based.
Data set [3] has as its target Adenosylhomocysteinase (Homo sapiens, UniProt P23526). Description: Inhibition of human placental SAH hydrolase expressed in Escherichia coli JM109 using SAH as substrate preincubated for 10 mins followed by SAH addition and measured after 20 mins by DNTB reagent-based spectrophotometric method.
In data set [4] the test system is Chikungunya virus. Description: Antiviral activity against CHIKV LS3 infected in African green monkey Vero E6 cells assessed as reduction in virus-induced cytopathic effect pretreated with compound followed by viral infection and measured at 96 hrs post-infection by MTS assay. The note with it: LS3, Vero C1008. The data set is classed as functional, organism-based.

The test system of data set [5] is Vero C1008. Put plainly: Cytotoxicity against African green monkey Vero E6 cells assessed as reduction in cell viability measured after 96 hrs by MTS assay. The data set is classed as cell-based. The note with it: chlorocebus sabaeus, vero c1008, 96 h.
The subject of data set [6] is Zika virus. Description: Antiviral activity against ZIKV SL0612 infected in African green monkey Vero CCL81 cells pretreated with compound followed by viral infection and measured at 96 hrs post-infection by MTS assay. The data set is classed as functional, organism-based.
Data set [7] in a line: Selectivity index, ratio of CC50 for African green monkey Vero E6 cells to EC50 for antiviral activity against CHIKV-LS3 infected in African green monkey Vero E6 cells. The data set is classed as toxicity, Vero C1008. The following applies: read-out: Ratio CC50/EC50.

Adenosylhomocysteinase, sequence (P23526 whole entry): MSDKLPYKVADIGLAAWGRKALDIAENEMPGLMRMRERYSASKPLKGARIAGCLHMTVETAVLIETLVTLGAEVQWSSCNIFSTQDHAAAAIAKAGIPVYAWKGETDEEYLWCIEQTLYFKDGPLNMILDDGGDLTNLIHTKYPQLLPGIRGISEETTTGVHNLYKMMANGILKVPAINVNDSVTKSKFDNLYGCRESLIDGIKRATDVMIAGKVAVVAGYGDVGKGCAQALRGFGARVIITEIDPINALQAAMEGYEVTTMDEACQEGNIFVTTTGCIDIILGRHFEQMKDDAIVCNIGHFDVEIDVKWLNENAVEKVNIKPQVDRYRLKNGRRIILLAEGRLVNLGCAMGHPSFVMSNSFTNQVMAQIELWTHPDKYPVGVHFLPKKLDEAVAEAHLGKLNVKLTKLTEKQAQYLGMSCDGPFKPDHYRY

With `CNc1ncnc2c1ncn2[C@H]1[C@H](O)[C@H](O)[C@@H](CCO)C1(F)F`, the outcome in data set [1], in data set [2] and in data set [6] was inactive. The compound also showed an IC50 in data set [3] of 3.05 µM. Besides, the EC50 in data set [4] was over 100 µM. Also, the CC50 in data set [5] was over 100 µM.
Take `OCC[C@@H]1[C@@H](O)[C@@H](O)[C@H](n2cnc3c(O)ncnc32)[C@@H]1F`: the result in data set [1], in data set [2] and in data set [6] was inactive. In addition, the IC50 in data set [3] is over 100 µM. For the same compound, the EC50 in data set [4] is over 100 µM. In data set [5], the 50% cytotoxic concentration (CC50) is over 100 µM.
As for `CNc1ncnc2c1ncn2[C@H]1[C@H](O)[C@H](O)[C@@H](CCO)[C@H]1F`, the result in data set [1], in data set [2] and in data set [6] was inactive. The compound further returned an IC50 in data set [3] of 0.37 µM. Further, the EC50 in data set [4] was over 100 µM. The CC50 in data set [5] was over 100 µM.
With `Nc1ncnc2c1ncn2[C@H]1[C@H](O)[C@H](O)[C@@H](CCO)C1(F)F`, the outcome in data set [1], in data set [2] and in data set [6] was inactive. This compound gave a half-inhibitory concentration (IC50) in data set [3] of 2.03 µM. Also, the EC50 in data set [4] is over 100 µM. The CC50 in data set [5] is over 25 µM.
As to `Nc1ncnc2c1ncn2[C@H]1[C@H](O)[C@H](O)[C@@H](CO)[C@H]1F`, the outcome in data set [1], in data set [2] and in data set [6] was Active. The EC50 in data set [4] was over 100 µM. Further, in data set [5], the CC50 is over 100 µM.
In the case of `Nc1ncnc2c1ncn2[C@H]1[C@H](O)[C@H](O)[C@@H](CO)C1(F)F`, the result in data set [1], in data set [2] and in data set [6] was Active. For the same compound, in data set [4], the EC50 turned out to be 0.13 µM. In addition, in data set [5], the CC50 was over 1.25 µM.
Turning to `Nc1ncnc2c1ncn2[C@H]1[C@H](O)[C@H](O)[C@@H](CCO)[C@H]1F`, the outcome in data set [1], in data set [2] and in data set [6] was inactive. This compound also showed an IC50 in data set [3] of 0.36 µM. The EC50 in data set [4] was determined as 0.12 µM. The CC50 in data set [5] is over 250 µM. Further, the selectivity ratio in data set [7] is over 2080.

The values are drawn from ChEMBL document CHEMBL4602649, “Identification of 6'-β-fluoro-homoaristeromycin as a potent inhibitor of chikungunya virus replication” (Eur J Med Chem, 2020).
